# Source: patent US20060199978A1, “Compounds having serotonin 5-ht17 receptor antagonist activity and muscarinic m4 receptor agonist activity and their use in the treatment of psychotic disorders” (priority 2003, published 2006)
# Read-outs that look alike come from different tables or passages of the source.
# Experiments:
# [1] = target: T1, human M4 muscarinic receptors (Homo sapiens, UniProt P08173); test: M4 binding assay (3H-NMS); settings: human M4 membranes, 3H-NMS 0.25 nM
# T1 construct: purchased NEN
# T1 sequence (P08173 1-479): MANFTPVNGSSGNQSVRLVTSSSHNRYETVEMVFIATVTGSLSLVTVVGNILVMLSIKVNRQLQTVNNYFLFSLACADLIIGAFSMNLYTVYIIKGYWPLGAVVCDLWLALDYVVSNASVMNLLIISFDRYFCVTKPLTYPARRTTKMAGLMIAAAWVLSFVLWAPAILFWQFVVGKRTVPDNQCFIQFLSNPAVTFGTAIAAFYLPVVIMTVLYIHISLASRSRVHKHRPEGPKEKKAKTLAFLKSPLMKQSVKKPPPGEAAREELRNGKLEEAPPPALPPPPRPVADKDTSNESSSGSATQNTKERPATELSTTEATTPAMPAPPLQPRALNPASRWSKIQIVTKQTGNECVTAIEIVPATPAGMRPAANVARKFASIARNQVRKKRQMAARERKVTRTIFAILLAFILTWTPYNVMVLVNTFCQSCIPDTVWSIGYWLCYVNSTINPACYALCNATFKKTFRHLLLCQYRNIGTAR
# Experimental: Total volume 200 μl/well. Membrane concentration—human M4 membranes (NEN)—8 μg/ml; ^3H-NMS 0.25 nM; Sample conc. 10 nM-300 μM; Atropine Displacement Curve—0.3 nM-1 μM.
# The plates are incubated at 20° C. for 60 minutes in the dark to avoid any photo degradation. Membranes are harvested by rapid filtration using a vacuum manifold under 700 mbar pressure. The plates are washed 3 times with 200 ul per well of ice-cold wash buffer. Plates are dried at 40° C. for 1 hour, 100 μl scintillation fluid is added to each well and cpm determined using a Microbeta scintillation counter.
# human D2 membrane = target: T2, human D2 membrane (Homo sapiens, UniProt P14416); test: D2 binding assay (3H-spiperone); settings: 3H-spiperone 0.5 nM
# T2 construct: purchased Euroscreen
# T2 sequence (P14416 whole entry): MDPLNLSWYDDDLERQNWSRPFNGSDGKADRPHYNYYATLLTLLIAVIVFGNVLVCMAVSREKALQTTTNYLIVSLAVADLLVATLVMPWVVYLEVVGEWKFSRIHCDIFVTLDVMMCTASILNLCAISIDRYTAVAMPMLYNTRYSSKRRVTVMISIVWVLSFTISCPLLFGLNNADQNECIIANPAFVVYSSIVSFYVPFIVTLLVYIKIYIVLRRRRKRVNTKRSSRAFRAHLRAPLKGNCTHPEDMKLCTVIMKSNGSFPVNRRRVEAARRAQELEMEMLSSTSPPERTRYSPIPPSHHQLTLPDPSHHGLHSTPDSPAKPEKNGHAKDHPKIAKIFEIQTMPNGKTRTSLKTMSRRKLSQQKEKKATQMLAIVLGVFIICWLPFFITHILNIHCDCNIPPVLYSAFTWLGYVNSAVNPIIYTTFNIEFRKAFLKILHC
# Experimental: Total volume 200 μl/well. Membrane concentration—human D2 membrane (purchased from Euroscreen)—10 μg/ml; ^3H-spiperone 0.5 nM; Sample conc. 10 nM-300 μM; Haloperidol Displacement Curve—1 nM-10 μM. The plates are incubated at 25° C. for 60 minutes in the dark to avoid any photo degradation.
# (§1) Membranes are harvested by rapid filtration using a vacuum manifold under 700 mbar pressure. The plates are washed 3 times with 200 ul/well of ice-cold wash buffer. Plates are dried at 40° C. for 1 hour (Higher CPMs are obtained when the filters are dried). 100 μl scintillation fluid is added to each well and cpm determined using a Microbeta scintillation counter.
# [2] = target: T3, M4 muscarinic receptors (N1E-115 cells) (Mus musculus, UniProt P32211); test: Homogenate assay for c-AMP production (PACAP-stimulated); assay type: biochemical; settings: N1E-115 homogenate; for reduction of c-AMP levels (agonist activity): PACAP 0.1 nM stimulation
# T3 construct: endogenous in cells; host or cells: mouse N1E-115 cells (homogenate)
# T3 sequence (P32211 1-479): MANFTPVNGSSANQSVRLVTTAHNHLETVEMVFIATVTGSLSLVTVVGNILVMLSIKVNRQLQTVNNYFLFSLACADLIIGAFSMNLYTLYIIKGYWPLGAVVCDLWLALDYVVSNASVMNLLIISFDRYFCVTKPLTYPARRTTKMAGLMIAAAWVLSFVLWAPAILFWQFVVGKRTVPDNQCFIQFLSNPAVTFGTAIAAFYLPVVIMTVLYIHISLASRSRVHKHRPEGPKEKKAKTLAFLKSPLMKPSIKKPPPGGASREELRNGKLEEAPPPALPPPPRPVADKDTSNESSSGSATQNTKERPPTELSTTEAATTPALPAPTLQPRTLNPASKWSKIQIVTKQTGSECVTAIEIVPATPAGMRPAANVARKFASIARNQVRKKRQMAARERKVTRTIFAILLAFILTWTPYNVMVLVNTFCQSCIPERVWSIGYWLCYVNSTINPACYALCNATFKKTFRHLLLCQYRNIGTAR
# Experimental: N1E-115 cells were harvested by scraping and placed in Ribolyser tubes on dry ice. Ice cold buffer (0.5 ml) containing 50 mM Tris HCl, 0.4 mM EDTA and 0.4 mM EGTA (pH 7.4) was added to the tubes. The tubes were then placed in a Ribolyser and shaken at 4 g for 20 sec. The homogenate was then transferred to eppendorf tubes and was then centrifuged at 19,700 g for 30 min at 4° C. The pellet was resuspended in ice cold 50 mM Tris HCl (pH7.4) at a concentration of 50 mg ml^−1 wet weight of tissue. The homogenate was stored in aliquots at −70° C. Protein concentrations of the homogenates were determined using a Bio-Rad protein determination kit. The assay was carried out in a final assay volume of 120 μl containing 50 mM Tris HCl (pH7.4), 5 mM MgCl2 50 μM GTP, 200 μM ATP, 120 μM sucrose, 0.4 mM EDTA, 0.4 mM EGTA, 200 μM ascorbic acid, 20 μM papaverine, 200 μM rolipram, 10 μM vinpocetine, 10 mM phosphocreatinine, 0.4 mM DTT, 100 nM WAY 100635, 1 μM propranolol, 36 μg bacitracin, 4.8 U creatine phosphokinase, 3.6 KIU aprotinin. Homogenate (1 mgml^−1) was preincubated with the test compound in ice cold assay buffer for 10 min. PACAP (0.1 nM) was then added to the tubes. The tubes were then incubated at 30° C. for 20 min and then at 99° C. for 5 min. Levels of c-AMP in the tubes were measured using the Amersham Pharmacia Biotech Biotrak c-AMP enzymeimmunoassay kit.
# human 5-HT7 receptors = target: T4, human 5-HT7 receptors (Homo sapiens, UniProt P34969); test: 5-HT7 binding assay (3H-5CT); settings: human 5-HT7 membrane, 3H-5CT 0.5 nM
# T4 construct: purchased Euroscreen
# T4 sequence (P34969 whole entry): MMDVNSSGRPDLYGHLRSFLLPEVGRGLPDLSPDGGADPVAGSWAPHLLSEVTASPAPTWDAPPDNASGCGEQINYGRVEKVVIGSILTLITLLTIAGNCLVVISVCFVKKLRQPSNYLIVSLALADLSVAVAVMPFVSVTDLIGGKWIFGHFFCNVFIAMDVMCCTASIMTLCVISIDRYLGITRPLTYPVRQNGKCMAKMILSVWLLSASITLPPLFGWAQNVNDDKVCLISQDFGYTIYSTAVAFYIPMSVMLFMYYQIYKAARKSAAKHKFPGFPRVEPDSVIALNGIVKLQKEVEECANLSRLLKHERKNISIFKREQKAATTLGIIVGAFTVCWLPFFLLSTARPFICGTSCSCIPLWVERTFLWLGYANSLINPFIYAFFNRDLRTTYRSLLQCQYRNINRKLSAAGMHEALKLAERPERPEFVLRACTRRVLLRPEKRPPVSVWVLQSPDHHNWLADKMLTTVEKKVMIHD
# Experimental: The compounds of the present invention were screened for binding affinity using membranes containing stably expressed human M4 muscarinic receptors or human 5-HT7 receptors.
# as §1, with “Total volume 200 μl/well. Membrane concentration—human 5-HT7 membrane (purchased from Euroscreen)—6 μg/ml; ^3H-5CT 0.5 nM; Sample conc. 10 nM-300 μM; 8OH-DPAT Displacement Curve—1 nM-3 μM. The plates are incubated at 20° C. for 120 minutes in the dark to avoid any photo degradation. Membranes” for “Membranes”, “dried)” for “dried).”
# [3] = test system: amphetamine-induced hyper-activity in rats; test: amphetamine-induced hyperactivity in rats; assay type: in vivo, rat; settings: for Line Crossings (mean ± S.E.): amphetamine control 111.6 ± 6.4
# Experimental: Male Long Evans rats (190-280 g) in each group of five were used. Amphetamine (1.0 mg/kg i.p.) was dissolved in saline, and test compounds were dissolved or suspended in 0.5% hydroxypropylmethylcellulose (HPMC) solution. All the test compounds were injected intraperitoneally in a volume of 0.1 ml/100 g, and control rats were treated with the respective vehicle. The plastic open-field box (40×40×40(H) cm) was used to measure the locomotor activity of rats. The locomotor activity was expressed as the number of line crossings marked on the floor of the test box at 20 cm square. Individual rats were placed in the test box just after the injection of amphetamine, and were allowed to habituate there for 10 min. The line crossings were counted over 15 min thereafter. The behavioural observation was conducted on two rats simultaneously using two test boxes. Test compounds were pretreated 30 min before the injection of amphetamine.
# [4] = test system: apomorphine-induced deficits in PPI in rats; test: apomorphine-induced deficits in prepulse inhibition (PPI); assay type: in vivo, rat; settings: s.c. 25 minutes prior to apomorphine 0.5 mg/kg s.c.; Wistar rats
# Excerpt: Male Wistar rats (Japan SLC Inc., Shizuoka, Japan) were used. They were housed in a light, humidity and temperature controlled environment maintained on a 12-hour/12-hour light/dark schedule (light on at 7 am) with food and water provided ad libitum. Four startle chambers (SR-LAB, San Diego Instruments, San Diego, Calif.) were placed in a sound-attenuated room. Each chamber consisted of Plexiglas cylinder 8.8 cm in diameter resting on a 12.7×20.3 cm Plexiglas stand. Acoustic stimuli and background noise were presented via a Supertweeter mounted 24 cm above the Plexiglas cylinder. Startle magnitude was detected and recorded by a microcomputer and interface assembly (San Diego Instruments) as transduced cylinder movement via a piezoelectric device mounted below the Plexiglas stand.
# One day before drug testing, all rats were exposed to a “matching” startle session. Data from this session were used to assign rats to balanced groups according to their startle responses. […] Each session was approximately 20 minutes and consisted of 5 minutes of 70-dB background followed by five trial types, PULSE ALONE trial: a 120-dB 50 ms noise burst, PREPULSE trials which consisted of 20 ms noise bursts 3, 5, 10 dB above 70-dB background noise followed 100 ms later by a 120-dB 40 ms noise burst, NOSTIM trial: 100 ms of response was recorded during periods where no stimulus was presented. […]
# chronic PCP-treated rats [5] = test: LCGU (2-DG) in chronic PCP rat model
# chronic PCP-treated rats [6] = settings: cited from earlier work
structure (smiles),measurement,setting,value
COc1cc2c(cc1OC)CN(/C=N/c1ccc3c(c1)C(O)CC3)CC2 (stereo not shown) [Compound 32],Ki,[1],0.32 µM
same,Ki,human D2 membrane,> 300 µM
same,reduction of c-AMP levels (agonist activity),[2],able to reduce cAMP levels
same,Ki,human 5-HT7 receptors,0.4 µM
same,Line Crossings (mean ± S.E.),"[3]; dose 1 mg/kg, i.p.",98.8 ± 7.3
same,Line Crossings (mean ± S.E.),"[3]; dose 3 mg/kg, i.p.",89.6 ± 13.3
same,Line Crossings (mean ± S.E.),"[3]; dose 10 mg/kg, i.p.",45.6 ± 8.3
same,effect on amphetamine-induced hyperactivity,"[3]; rats, i.p., 30 min before amphetamine",suppressed the hyperactivity in a dose-dependent manner
same,"ED50, suppression of amphetamine-induced hyperactivity","[3]; rats, amphetamine 1.0 mg/kg i.p., 95% confidence limits, estimated","8.1 (95% confidence limits; 4.4-15) mg/kg, i.p."
"OC1CCc2ccc(/N=C/N3CCc4ccccc4C3)cc21 (stereo not shown) [Compound 34, 6-[(3,4-dihydro-1H-isoquinolin-2-ylmethylene)-amino]-indan-1-ol]",Ki,[1],2.8 µM
same,Ki,human D2 membrane,> 300 µM
same,Ki,human 5-HT7 receptors,2.7 µM
"CCCSc1nsnc1[C@H]1CN2CCC[C@H]1C2 [PTAC, (5R,6R)6-(3-propylthio-1,2,5-thiadiazol-4-yl)-1-azabicyclo(3.2.1)octane]",effect on apomorphine-induced disruption of PPI,[4],Neither PTAC nor SB25871 alone affect the disruption induced by apomorphine
"Cc1cccc(S(=O)(=O)N2CCC[C@@H]2CCN2CCC(C)CC2)c1 [SB258741, R-(+)-1-(toluene-3-sulfonyl)-2-[2-(4-methylpiperidin-1-yl)ethyl]pyrrolidine]",effect on apomorphine-induced disruption of PPI,[4],Neither PTAC nor SB25871 alone affect the disruption induced by apomorphine
CN1[C@@H]2CC[C@H]1C[C@@H](OC(=O)C(CO)c1ccccc1)C2 (stereo partly shown) [atropine],blockade of the cAMP-reducing effect of Compound 32,[2],the effect was blocked
O=C(CCCN1CCC(O)(c2ccc(Cl)cc2)CC1)c1ccc(F)cc1 [haloperidol],effect on PCP-induced metabolic hypofunction (LCGU),"chronic PCP-treated rats [5]; prelimbic region of the prefrontal cortex, chronic treatment",not by haloperidol or clozapine
same,effect on PCP-reduced local glucose utilisation,"chronic PCP-treated rats [5]; ventral lateral lemniscus, chronic treatment (FIG. 4)",only partially restores the hypofunction
same,effect on PCP-reduced local glucose utilisation,"chronic PCP-treated rats [5]; ventral reticular thalamic nucleus, chronic treatment (FIG. 3)",not by haloperidol or clozapine
same,effect on PCP-induced hypofunction,"chronic PCP-treated rats [6]; auditory structures, reported previously (Cochran et al., 2003)",reversed the PCP-induced hypofunction
same,effect on PCP-induced metabolic hypofunction,"chronic PCP-treated rats [6]; prelimbic region of the prefrontal cortex, shown previously (Cochran et al., 2003)",failed to reverse
same,effect on PCP-induced hypofunction,"chronic PCP-treated rats [6]; reticular nucleus of the thalamus, shown previously (Cochran et al., 2003)",failed to reverse
O=C1CCCN1CC#CCN1CCCC1 [oxotremorine],reduction of c-AMP levels (agonist activity),[2],showed the ability to reduce c-AMP levels
